In patent publication US10183950B2, “Thienopyrimidine inhibitors of atypical protein kinase C” (Cancer Research Technology Limited, priority 2011, dated 2019):

Target: T1, kinase-domain human PKCι (Homo sapiens, UniProt P41743)
T1 construct: Recombinant, kinase-domain human PKCι is expressed and purified in-house; made in house
T1 sequence (P41743 254-522 limits assumed): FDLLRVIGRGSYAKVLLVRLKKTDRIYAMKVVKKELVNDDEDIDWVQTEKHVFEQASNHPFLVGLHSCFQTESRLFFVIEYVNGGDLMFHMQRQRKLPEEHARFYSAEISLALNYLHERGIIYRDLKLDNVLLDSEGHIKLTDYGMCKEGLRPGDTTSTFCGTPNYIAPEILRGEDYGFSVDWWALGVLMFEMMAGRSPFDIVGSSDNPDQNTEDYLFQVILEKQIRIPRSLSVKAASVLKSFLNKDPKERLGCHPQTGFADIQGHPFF
Assay: PKCι IC50 IMAP fluorescence polarisation assay, kinase-domain enzyme
Type: biochemical
Conditions: kinase domain PKCi at 2 μM ATP; read-out: IC50 in IMAP assay against kinase domain PKCi (Activity)
Procedure: Assays are based on the ability of PKCι to phosphorylate a commercially available peptide substrate in vitro. […] Recombinant, full-length human PKCι expressed in Sf21 insect cells is also commercially available. Recombinant, kinase-domain human PKCι is expressed and purified in-house.
The procedure below explains how dose response curves for inhibitors of PKCι are obtained.
Compounds to be tested are dissolved in 100% DMSO. […] 1 μl is plated into 384 well black low-binding flat bottomed assay plates which are used immediately. Dilutions and additions of compound to assay plates are carried out using Matrix WellMate® and Matrix PlateMate® Plus liquid handling systems.
The final concentration of peptide substrate in the assay is 100 nM. […] Relevant controls are included, namely no compound and no enzyme. […] The reaction is allowed to incubate for 60 minutes at room temperature, before the reaction is stopped and developed by the addition of 20 μl IMAP™ development reagent (Molecular Devices). IMAP development reagent consists of 0.25% (v/v) IMAP progressive binding reagent, 17% (v/v) IMAP progressive binding buffer A and 3% (v/v) IMAP progressive binding buffer B. The plates are then incubated for 2 hours at room temperature before being read using an appropriate plate reader, for example a Molecular Devices HT Analyst or a BMG Pherastar.

IC50 [nM] | Compound
1000 to 10000 | CC[C@@H](N)CNc1nc(-c2ccncc2)nc2sc3c(c12)CCCC3 [compound 17, (R)-N*1*-(2-Pyridin-4-yl-5,6,7,8-tetrahydro-benzo[4,5]thieno[2,3-d]pyrimidin-4-yl)-butane-1,2-diamine]
100 to 1000 | c1cc(-c2nc(N3C[C@@H]4C[C@H]3CN4)c3c4c(sc3n2)CCCC4)ccn1 [compound 18, 4-(1S,4S)-2,5-Diaza-bicyclo[2.2.1]hept-2-yl-2-pyridin-4-yl-5,6,7,8-tetrahydro-benzo[4,5]thieno[2,3-d]pyrimidine]
100 to 1000 | c1cc(-c2nc(N[C@@H]3CCNC3)c3c4c(sc3n2)CCCC4)ccn1 [compound 19, (2-pyridin-4-yl-5,6,7,8-tetrahydro-benzo[4,5]thieno[2,3-d]pyrimidin-4-yl)-(R)-pyrrolidin-3-yl-amine]
1000 to 10000 | c1cc(-c2nc(N[C@H]3CCNC3)c3c4c(sc3n2)CCCC4)ccn1 [compound 20, (2-Pyridin-4-yl-5,6,7,8-tetrahydro-benzo[4,5]thieno[2,3-d]pyrimidin-4-yl)-(S)-pyrrolidin-3-yl-amine]
100 to 1000 | CC1CCc2c(sc3nc(-c4ccncc4)nc(NCCN)c23)C1 (stereo not shown) [compound 21, N*1*-(7-Methyl-2-pyridin-4-yl-5,6,7,8-tetrahydro-benzo[4,5]thieno[2,3-d]pyrimidin-4-yl)-ethane-1,2-diamine]
1000 to 10000 | CC1CCc2c(sc3nc(-c4ccncc4)nc(NC[C@H](C)N)c23)C1 (stereo partly drawn) [compound 22, (S)-N*1*-(7-Methyl-2-pyridin-4-yl-5,6,7,8-tetrahydro-benzo[4,5]thieno[2,3-d]pyrimidin-4-yl)-propane-1,2-diamine]
1000 to 10000 | CC1CCc2c(sc3nc(-c4ccncc4)nc(NC[C@@H](C)N)c23)C1 (stereo partly drawn) [compound 23, (R)-N*1*-(7-Methyl-2-pyridin-4-yl-5,6,7,8-tetrahydro-benzo[4,5]thieno[2,3-d]pyrimidin-4-yl)-propane-1,2-diamine]
100 to 1000 | NCCNc1nc(-c2ccncc2)nc2sc3c(c12)CCCCCC3 [compound 24, N*1*-(2-Pyridin-4-yl-5,6,7,8,9,10-hexahydro-11-thia-1,3-diaza-cycloocta[a]inden-4-yl)-ethane-1,2-diamine]
1000 to 10000 | C[C@H](N)CNc1nc(-c2ccncc2)nc2sc3c(c12)CCCCCC3 [compound 25, (S)-N*1*-(2-Pyridin-4-yl-5,6,7,8,9, 10-hexahydro-11-thia-1,3-diaza-cycloocta[a]inden-4-yl)-propane-1,2-diamine]
1000 to 10000 | C[C@@H](N)CNc1nc(-c2ccncc2)nc2sc3c(c12)CCCCCC3 [compound 26, (R)-N*1*-(2-Pyridin-4-yl-5,6,7,8,9, 10-hexahydro-11-thia-1,3-diaza-cycloocta[a]inden-4-yl)-propane-1,2-diamine]
100 to 1000 | CC(C)Cc1csc2nc(-c3ccncc3)nc(NCCN)c12 [compound 28, N*1*-(5-Isobutyl-2-pyridin-4-yl-thieno[2,3-d]pyrimidin-4-yl)-ethane-1,2-diamine]
100 to 1000 | CC(C)Cc1csc2nc(-c3ccncc3)nc(NC[C@H](C)N)c12 [compound 29, (S)-N*1*-(5-Isobutyl-2-pyridin-4-yl-thieno[2,3-d]pyrimidin-4-yl)-propane-1,2-diamine]
1000 to 10000 | CC(C)Cc1csc2nc(-c3ccncc3)nc(NC[C@@H](C)N)c12 [compound 30, (R)-N*1*-(5-Isobutyl-2-pyridin-4-yl-thieno[2,3-d]pyrimidin-4-yl)-propane-1,2-diamine]
1000 to 10000 | CCc1c(C)sc2nc(-c3ccncc3)nc(NC[C@H](C)N)c12 [compound 31, (S)-N*1*-(5-Ethyl-6-methyl-2-pyridin-4-yl-thieno[2,3-d]pyrimidin-4-yl)-propane-1,2-diamine]
10000 to 40000 | CCc1c(C)sc2nc(-c3ccncc3)nc(NC[C@@H](C)N)c12 [compound 32, (R)-N*1*-(5-Ethyl-6-methyl-2-pyridin-4-yl-thieno[2,3-d]pyrimidin-4-yl)-propane-1,2-diamine]
1000 to 10000 | CCc1cc2c(NCCN)nc(-c3ccncc3)nc2s1 [compound 33, N*1*-(6-Ethyl-2-pyridin-4-yl-thieno[2,3-d]pyrimidin-4-yl)-ethane-1,2-diamine]
1000 to 10000 | CCc1cc2c(NC[C@H](C)N)nc(-c3ccncc3)nc2s1 [compound 34, (S)-N*1*-(6-Ethyl-2-pyridin-4-yl-thieno[2,3-d]pyrimidin-4-yl)-propane-1,2-diamine]

IC50 [nM] | Compound
1000 to 10000 | CCc1cc2c(NC[C@@H](C)N)nc(-c3ccncc3)nc2s1 [compound 35, (R)-N*1*-(6-Ethyl-2-pyridin-4-yl-thieno[2,3-d]pyrimidin-4-yl)-propane-1,2-diamine]
100 to 1000 | Cc1sc2nc(-c3ccncc3)nc(NCCN)c2c1C [compound 36, N*1*-(5,6-Dimethyl-2-pyridin-4-yl-thieno[2,3-d]pyrimidin-4-yl)-ethane-1,2-diamine]
1000 to 10000 | Cc1sc2nc(-c3ccncc3)nc(NC[C@H](C)N)c2c1C [compound 37, (S)-N*1*-(5,6-Dimethyl-2-pyridin-4-yl-thieno[2,3-d]pyrimidin-4-yl)-propane-1,2-diamine]
1000 to 10000 | Cc1sc2nc(-c3ccncc3)nc(NC[C@@H](C)N)c2c1C [compound 38, (R)-N*1*-(5,6-Dimethyl-2-pyridin-4-yl-thieno[2,3-d]pyrimidin-4-yl)-propane-1,2-diamine]
100 to 1000 | Cc1c(C(N)=O)sc2nc(-c3ccncc3)nc(NCCN)c12 [compound 39, 4-(2-Amino-ethylamino)-5-methyl-2-pyridin-4-yl-thieno[2,3-d]pyrimidine-6-carboxylic acid amide]
1000 to 10000 | CC(C)c1cc2c(NCCN)nc(-c3ccncc3)nc2s1 [compound 40, N*1*-(6-Isopropyl-2-pyridin-4-yl-thieno[2,3-d]pyrimidin-4-yl)-ethane-1,2-diamine]
10000 to 40000 | CC(C)c1cc2c(NC[C@@H](C)N)nc(-c3ccncc3)nc2s1 [compound 41, (R)-N*1*-(6-Isopropyl-2-pyridin-4-yl-thieno[2,3-d]pyrimidin-4-yl)-propane-1,2-diamine]
1000 to 10000 | CC[C@H](N)CNc1nc(-c2ccncc2)nc2sc3c(c12)CCCC3 [compound 68, (S)-N*1*-(2-Pyridin-4-yl-5,6,7,8-tetrahydro-benzo[4,5]thieno[2,3-d]pyrimidin-4-yl)-butane-1,2-diamine]
100 to 1000 | CC1CCc2c(sc3nc(-c4ccncc4)nc(NC[C@@H](N)Cc4ccccc4)c23)C1 (stereo partly drawn) [compound 69, (S)-N*1*-(7-Methyl-2-pyridin-4-yl-5,6,7,8-tetrahydro-benzo[4,5]thieno[2,3-d]pyrimidin-4-yl)-3-phenyl-propane-1,2-diamine]
100 to 1000 | Cc1c(C(N)=O)sc2nc(-c3ccncc3)nc(NC[C@@H](N)Cc3ccccc3)c12 [compound 74, 4-((S)-2-Amino-3-phenyl-propylamino)-5-methyl-2-pyridin-4-yl-thieno[2,3-d]pyrimidine-6-carboxylic acid amide]
1000 to 10000 | CC(C)c1cc2c(NC[C@@H](N)Cc3ccccc3)nc(-c3ccncc3)nc2s1 [compound 75, (S)-N*1*-(6-Isopropyl-2-pyridin-4-yl-thieno[2,3-d]pyrimidin-4-yl)-3-phenyl-propane-1,2-diamine]
100 to 1000 | N[C@H](CNc1nc(-c2ccncc2)nc2sc3c(c12)CCCCCC3)Cc1ccccc1 [compound 76, (S)-3-Phenyl-N*1*-(2-pyridin-4-yl-5,6,7,8,9,10-hexahydro-11-thia-1,3-diaza-cycloocta[a]inden-4-yl)-propane-1,2-diamine]
100 to 1000 | NCCNc1nc(-c2ccncc2)nc2sc3c(c12)CCCCC3 [compound 84, N*1*-(2-pyridin-4-yl-6,7,8,9-tetrahydro-5H-10-thia-1,3-diaza-benzo[a]azulen-4-yl)-ethane-1,2-diamine]
100 to 1000 | c1cc(-c2nc(N3CCNCC3)c3c4c(sc3n2)CCCCC4)ccn1 [compound 85, 4-Piperazin-1-yl-2-pyridin-4-yl-6,7,8,9-tetrahydro-5H-10-thia-1,3-diaza-benzo[a]azulene]
100 to 1000 | c1cc(-c2nc(N3CCCNCC3)c3c4c(sc3n2)CCCCC4)ccn1 [compound 86, 4-[1,4]Diazepan-1-yl-2-pyridin-4-yl-6,7,8,9-tetrahydro-5H-10-thia-1,3-diaza-benzo[a]azulene]
100 to 1000 | N[C@H](CNc1nc(-c2ccncc2)nc2sc3c(c12)CCCCC3)Cc1ccccc1 [compound 87, (S)-3-Phenyl-N*1*-(2-pyridin-4-yl-6,7,8,9-tetrahydro-5H-10-thia-1,3-diaza-benzo[a]azulen-4-yl)-propane-1,2-diamine]
100 to 1000 | C[C@H](N)CNc1nc(-c2ccncc2)nc2sc3c(c12)CCCCC3 [compound 88, (S)-N*1*-(2-Pyridin-4-yl-6,7,8,9-tetrahydro-5H-10-thia-1,3-diaza-benzo[a]azulen-4-yl)-propane-1,2-diamine]
